Columns and labels:
[1] = tested on: EA.hy926 cells; test: LDH, MDA, ROS and SOD in H2O2-treated cells; assay type: cell-based, human; conditions: pretreated 24 h, then 400 μmol·L^−1 H2O2 for 4 h; p < 0.01
Method: In the course of oxidative stress, the balance between oxidation and antioxidant activity of cells was disturbed, and the levels of ROS, malondialdehyde (MDA) and lactate dehydrogenase (LDH) increased, while the activity of superoxide dismutase (SOD) enzyme in cells decreased.
Cells were dispensed into 24-well plate wells for 24 h and pretreated with target compound SC2 (5, 0.1, 0.05 µmol·L^−1) or the positive controls (10 µmol·L^−1) for 24 h, followed by exposure to 400 μmol·L^−1 H2O2 for 4 h. The cells were collected and the activities of LDH, MDA, SOD and ROS were determined according to the kits’ instructions.

[2] = tested on: EA.hy926 cells; test: Cytotoxicity of compound SC2, MTT assay; assay type: cell-based, human
Method: The cytotoxicity of compound SC2 on EA.hy926 cells was detected by 3-(4,5-dimethyl-2-thiazolyl)-2,5-diphenyl-2-H-tetrazolium bromide (MTT) assay.
Compound SC2 stock solutions were prepared in DMSO. The stock solutions were diluted with FBS free DMEM to different target concentrations (DMSO concentrations ≤ 0.5% v:v). Cells (100 μL, 2 × 10^5 cells∙mL^−1) were seeded on 96-well plates and cultured for 24 h. The medium was then replaced with fresh media containing H2O2 with different concentrations (0, 100, 200, 300, 400, 500, and 600 μmol·L^−1 in FBS free DMEM) and compound SC2 (50, 40, 30, 20, 10 µmol·L^−1), which were transferred to the incubator and cultured for additional time (2, 4, and 6 h). The medium was then replaced with 100 μL of FBS free DMEM and MTT (10 μL, 5 mg·mL^−1 in PBS) and after 4 h the medium was replaced with DMSO (100 μL). A microplate reader (SpectraMaxPlus384, Molecular Devices, United States) was used to record the absorbance at 490 nm for each well of the plates. Cell viability was measured via MTT assay. Survival rate (%) = (Asample group/Acontrol group) × 100%.

SMILES: CC(C)(C)c1ccc(C(=O)c2c(Cl)cc(O)c(O)c2O)cc1 [SC2]
- LDH level compared with model group [1]: significantly reduced
- MDA level compared with model group [1]: significantly reduced
- ROS level compared with model group [1]: significantly reduced
- SOD activity compared with model group [1]: significantly increased
- cell survival rate compared with control group ([2]; concentrations less than 30 µmol·L^−1): not significantly different
- effect on cells at concentration used in cell-based experiments ([2]; less than 10 µmol·L^−1): harmless to cells

Reference: publication PMC8587043, “An Investigation into the Interaction between Double Hydroxide-Based Antioxidant Benzophenone Derivatives and Cyclooxygenase 2” (Molecules, 2021)
